Consider 14 compounds from PubChem BioAssay (NCI).

Some test systems named below: HOP-92 NSCLC; NCI-H23 lung; SW-620 colon; TK-10 renal; LOX IMVI melanoma; IGROV1 ovarian; HCC-2998 colon; CAKI-1 renal; SK-MEL-5 melanoma.
Common to all, as to assay: NCI-60 cell line screen, 48 h

SMILES strings stand for the structures. Several values for one entry are separate records, joined by “and”; a condition that tells them apart may be missing. Equal values may be shown once.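 Following 48 hours of exposure in 96-well plates, responses at five concentrations were used to interpolate endpoints linearly. The concentration for 50% growth inhibition is given as GI50. TGI: concentration producing complete growth inhibition.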

Take `O=c1[nH]c2ccccc2cc1C(Cl)=C(Cl)Cl`: the TGI with HOP-92 NSCLC, in the assay with NCI-H23 lung, in the assay on SW-620 colon, with TK-10 renal, with LOX IMVI melanoma and in the assay with IGROV1 ovarian was greater than 100 µM in each case. Further, the TGI in the assay with HCC-2998 colon and in the assay on CAKI-1 renal was greater than 100 µM each time.

For `O=C1CCCN(c2ccccc2)N1`, the TGI with SK-MEL-5 melanoma, in the assay on SW-620 colon, in the assay with LOX IMVI melanoma, in the assay with IGROV1 ovarian, in the assay on HCC-2998 colon and in the assay with CAKI-1 renal was greater than 100 µM each time.

Turning to `CCOC(=O)C1(CC)CCCCC(=O)N1` (stereo not given), the TGI in the assay with HOP-92 NSCLC, with NCI-H23 lung, in the assay with SW-620 colon, with TK-10 renal, in the assay with LOX IMVI melanoma and with IGROV1 ovarian was greater than 100 µM in each case. The TGI in the assay on HCC-2998 colon and with CAKI-1 renal was greater than 100 µM in each case.

With `CCOC(=O)CC1=Nc2ccccc2SC1`, the TGI with SK-MEL-5 melanoma, in the assay on HOP-92 NSCLC, in the assay with NCI-H23 lung, with SW-620 colon, in the assay with TK-10 renal and with LOX IMVI melanoma was greater than 100 µM in each case. In addition, the TGI in the assay with IGROV1 ovarian, with HCC-2998 colon and with CAKI-1 renal was greater than 100 µM in each case.

Take `Cc1ccc(-c2c(N)nc(NC#N)nc2CCC(=O)Nc2ccccc2[N+](=O)[O-])cc1`: the TGI in the assay on SK-MEL-5 melanoma, in the assay with HOP-92 NSCLC, with NCI-H23 lung, in the assay on SW-620 colon, with TK-10 renal and in the assay on LOX IMVI melanoma was greater than 100 µM in each case. The TGI in the assay with IGROV1 ovarian, in the assay on HCC-2998 colon and with CAKI-1 renal was greater than 100 µM each time.

On to `C#CCNC(=O)NC(CCCNC(=O)OCc1ccccc1)C(=O)OCc1ccccc1` (stereo not given), for which the TGI with SK-MEL-5 melanoma, with HOP-92 NSCLC, in the assay with NCI-H23 lung, with SW-620 colon, in the assay with TK-10 renal and in the assay on LOX IMVI melanoma was greater than 100 µM in each case. The TGI was greater than 100 µM in the assay on IGROV1 ovarian, greater than 100 µM with HCC-2998 colon and 87.5 µM with CAKI-1 renal.

In the case of `CCCCCCCCCCCCC(=O)OC(c1cnco1)c1nc(C(O)CC(O)C(O)C(C)O)co1` (stereo not given), the GI50 in the assay on SK-MEL-5 melanoma was 1.45 µM; in the assay with HOP-92 NSCLC, 1.62 µM; in the assay on NCI-H23 lung, 1.23 µM; with SW-620 colon, 0.566 µM; in the assay on TK-10 renal, 5.04 µM; in the assay with LOX IMVI melanoma, 0.735 µM. In addition, the GI50 is 1.71 µM in the assay on IGROV1 ovarian, 1.68 µM in the assay on HCC-2998 colon and 4.96 µM with CAKI-1 renal. Besides, the TGI in the assay with SK-MEL-5 melanoma was 9.66 µM and 6.95 µM; in the assay with HOP-92 NSCLC, greater than 100 µM; in the assay on NCI-H23 lung, 25 µM; with SW-620 colon, greater than 62.7 µM; in the assay on TK-10 renal, greater than 76.5 µM; in the assay with LOX IMVI melanoma it was greater than 42.4 µM. For the same compound, the results for the TGI in the assay with IGROV1 ovarian, in the assay on HCC-2998 colon and in the assay with CAKI-1 renal were greater than 100 µM, greater than 100 µM and greater than 55.3 µM, respectively.

Take `O=C1NC(c2ccc(O)cc2)C2CCC1C2` (stereo not given): the TGI in the assay on SK-MEL-5 melanoma, in the assay on HOP-92 NSCLC, in the assay with NCI-H23 lung, in the assay with SW-620 colon, in the assay on TK-10 renal and in the assay on IGROV1 ovarian was greater than 100 µM in each case. The TGI in the assay on HCC-2998 colon and with CAKI-1 renal was greater than 100 µM each time.

In the case of `O=C(c1ccc2ccccc2c1)c1c(C(F)(F)F)n([O-])c2cc(Cl)c(Cl)cc2[n+]1=O`, the GI50 in the assay with SK-MEL-5 melanoma is 1.6 µM; in the assay on HOP-92 NSCLC it was 1.55 µM; with SW-620 colon, 1.63 µM; with TK-10 renal, 1.77 µM; in the assay on LOX IMVI melanoma, 1.17 µM; with IGROV1 ovarian, 1.3 µM. Also, the GI50 in the assay on HCC-2998 colon was 1.48 µM; with CAKI-1 renal, 1.35 µM. For the same compound, the TGI came out at 2.94 µM in the assay on SK-MEL-5 melanoma; 3.18 µM with HOP-92 NSCLC; 2.98 µM in the assay on SW-620 colon; 3.15 µM with TK-10 renal; 2.4 µM in the assay on LOX IMVI melanoma; 2.56 µM in the assay on IGROV1 ovarian. The values for the TGI with HCC-2998 colon and with CAKI-1 renal were 2.8 µM and 2.63 µM, respectively.

As for `O=C1NC2(CCCC2)C(=O)C12CCCC2`, the TGI with SK-MEL-5 melanoma, with HOP-92 NSCLC, with NCI-H23 lung, in the assay on SW-620 colon, in the assay with TK-10 renal and in the assay with LOX IMVI melanoma was greater than 100 µM in each case. Besides, the TGI in the assay with IGROV1 ovarian and with CAKI-1 renal was greater than 100 µM each time.

With `CC(=O)OC1=C2CC3(C)OC(=O)CC(C)(C)C3=CC=C2C=C(C(C)C)C1=O` (stereo not given), the TGI in the assay on SK-MEL-5 melanoma turned out to be 2.12 µM; with HOP-92 NSCLC it was 0.499 µM; with NCI-H23 lung, 1.47 µM; in the assay on SW-620 colon, 1.14 µM; in the assay with TK-10 renal, 2.51 µM; in the assay with LOX IMVI melanoma, 0.425 µM. Also, the TGI amounted to 2.46 µM in the assay on IGROV1 ovarian, 2.15 µM with HCC-2998 colon and 3.18 µM in the assay with CAKI-1 renal.

Take `CCOC(=O)C1=C(C)Nc2ccccc2S1`: the TGI in the assay on SK-MEL-5 melanoma, in the assay with HOP-92 NSCLC, with NCI-H23 lung, in the assay on SW-620 colon, in the assay on TK-10 renal and with LOX IMVI melanoma was greater than 100 µM in each case. The TGI in the assay on IGROV1 ovarian, with HCC-2998 colon and in the assay with CAKI-1 renal was greater than 100 µM throughout.

With `C=CCSC[C@H](NC(=O)COc1ccccc1)C(=O)NC(C(=O)OCc1ccc([N+](=O)[O-])cc1)=C(C)C`, the TGI in the assay with SK-MEL-5 melanoma, with LOX IMVI melanoma, in the assay on IGROV1 ovarian and in the assay with HCC-2998 colon was greater than 100 µM each time.

In the case of `COC(=O)C(C#N)=C1c2ccccc2Oc2ccccc21`, the TGI in the assay with SK-MEL-5 melanoma was greater than 100 µM; in the assay on HOP-92 NSCLC it was 87.6 µM; in the assay on NCI-H23 lung it was greater than 100 µM; with SW-620 colon it was greater than 100 µM; in the assay on TK-10 renal it was greater than 100 µM; in the assay on LOX IMVI melanoma, greater than 100 µM. The TGI in the assay with IGROV1 ovarian, in the assay with HCC-2998 colon and with CAKI-1 renal was greater than 100 µM in each case.
